# Experimental data published in US6566541B2, “Type 2 methionine aminopeptidase (MetAP2) inhibitors and uses thereof” (Massachusetts Institute of Technology, priority 1997, dated 2003).
# Like-named read-outs stand apart in the source and are kept apart here.
# Assays:
# [1] = tested on: bovine aortic endothelial cell (BAEC); test: bovine aortic endothelial cell (BAEC) proliferation assay (MTT); assay type: cell-based; conditions: for activity in the BAEC proliferation assay: result in words; for IC50: Bos taurus
# Experimental: BAEC were trypsinized and plated into 96-well plates at a density of 2000 cells per well. After the cells adhered to the plate, compounds dissolved in ethanol (final concentration of 0.5%) were added to the cultures.
# (§1) Synthesis was according to the procedures as described in Mauri et al., Chem. Pharm. Bull. […] Bull.
# recombinant human MetAP2 [2] = biological target: T1, recombinant human MetAP2 (Homo sapiens, UniProt P50579); test: methionine aminopeptidase activity of MetAP2 (Met-Gly-Met-Met substrate); assay type: biochemical
# T1 construct: made in house; host or cells: insect cells
# T1 sequence (P50579 whole entry): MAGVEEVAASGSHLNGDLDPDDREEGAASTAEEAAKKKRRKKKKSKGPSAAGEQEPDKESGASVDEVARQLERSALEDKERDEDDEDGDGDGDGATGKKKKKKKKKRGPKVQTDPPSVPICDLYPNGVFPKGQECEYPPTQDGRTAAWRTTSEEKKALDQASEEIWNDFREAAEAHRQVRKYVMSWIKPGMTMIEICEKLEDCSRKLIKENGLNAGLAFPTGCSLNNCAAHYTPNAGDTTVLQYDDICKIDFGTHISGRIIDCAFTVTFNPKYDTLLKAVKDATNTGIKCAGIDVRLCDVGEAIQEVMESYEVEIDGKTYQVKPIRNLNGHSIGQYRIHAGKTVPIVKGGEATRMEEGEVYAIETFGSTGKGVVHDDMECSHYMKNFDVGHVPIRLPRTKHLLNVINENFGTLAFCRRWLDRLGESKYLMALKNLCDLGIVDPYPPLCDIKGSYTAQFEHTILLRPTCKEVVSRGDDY
# Experimental: Recombinant human MetAP2 was expressed and purified from insect cells as described in Li and Chang, Biochem. Biophys. Res. Commun. […] Released methionine was quantified at different time points (0, 2, 3 and 5 min) using the method of Zuo et al., Mol. Gen.
# as §1
# recombinant human MetAP2 [3] = biological target: T1, recombinant human MetAP2; test: MetAP2 inhibition of eIF-2α phosphorylation by heme-regulated inhibitor kinase (HRI); assay type: biochemical; conditions: compared with unbound MetAP2
# Experimental: Modified or control MetAP2 (0.6 μg) was incubated with purified eIF-2 (0.3 μg) in 20 mM Tris·HCl, pH 7.8, 40 mM KCl, and 2 mM MgAC2 on ice for 1 hr. Recombinant HRI (0.25 ng) and [γ-^32P]ATP were then added to a final total volume of 20 μl and the reaction mixture was further incubated at 37° C. for 10 min. The labeled eIF-2α was analyzed by 10% SDS-PAGE followed by autoradiography. The phosphorylated bands were quantified by NIH Image 1.60 software.
# [4] = tested on: Wild-type [YPH500] yeast cells; test: yeast growth on YEPD plates containing drug, wild type; assay type: cell-based, Saccharomyces cerevisiae; conditions: 50 nM drug, YEPD plate, 30° C., four days
# Description: (§2) […]. […] […].
# [5] = tested on: map1 null [XLP101 (map1::HIS3)] yeast cells; test: yeast growth on YEPD plates containing drug, map1 null; assay type: cell-based, Saccharomyces cerevisiae; conditions: 50 nM drug, YEPD plate, 30° C., four days
# Description: as §2
# [6] = tested on: map2 null [XLP201 (map2::URA3)] yeast cells; conditions: 50 nM drug, YEPD plate, 30° C., four days
# Experimental: To further test the specificity of these drugs, both wild type and mutant yeast strains lacking either MetAP1 (map1) or MetAP2 (map2) were plated onto media containing the two drugs. […] The plates were incubated at 30° C. for four days.
# recombinant yeast MetAP1 = biological target: T2, recombinant yeast MetAP1 (Saccharomyces cerevisiae, UniProt Q01662); test: MetAP activity of recombinant yeast MetAP1 in vitro; assay type: biochemical; conditions: concentrations up to 10 μM
# T2 sequence (Q01662 1-387): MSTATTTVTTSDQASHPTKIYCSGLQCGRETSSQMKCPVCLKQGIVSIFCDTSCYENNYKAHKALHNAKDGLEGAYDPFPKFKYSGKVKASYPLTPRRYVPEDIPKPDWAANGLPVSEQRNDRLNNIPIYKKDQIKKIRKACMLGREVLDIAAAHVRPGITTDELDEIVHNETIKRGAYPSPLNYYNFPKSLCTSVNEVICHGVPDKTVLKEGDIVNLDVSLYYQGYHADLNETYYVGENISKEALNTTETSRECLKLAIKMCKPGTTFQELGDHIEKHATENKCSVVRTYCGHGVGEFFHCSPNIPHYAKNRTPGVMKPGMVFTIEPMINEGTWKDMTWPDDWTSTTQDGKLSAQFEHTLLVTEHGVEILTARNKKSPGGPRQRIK
# recombinant yeast MetAP2 = recombinant yeast MetAP2 (Saccharomyces cerevisiae, UniProt P38174); test: MetAP activity of recombinant yeast MetAP2 in vitro; assay type: biochemical; conditions: concentrations as low as 5 nM
# Chain of recombinant yeast MetAP2 (P38174 whole entry): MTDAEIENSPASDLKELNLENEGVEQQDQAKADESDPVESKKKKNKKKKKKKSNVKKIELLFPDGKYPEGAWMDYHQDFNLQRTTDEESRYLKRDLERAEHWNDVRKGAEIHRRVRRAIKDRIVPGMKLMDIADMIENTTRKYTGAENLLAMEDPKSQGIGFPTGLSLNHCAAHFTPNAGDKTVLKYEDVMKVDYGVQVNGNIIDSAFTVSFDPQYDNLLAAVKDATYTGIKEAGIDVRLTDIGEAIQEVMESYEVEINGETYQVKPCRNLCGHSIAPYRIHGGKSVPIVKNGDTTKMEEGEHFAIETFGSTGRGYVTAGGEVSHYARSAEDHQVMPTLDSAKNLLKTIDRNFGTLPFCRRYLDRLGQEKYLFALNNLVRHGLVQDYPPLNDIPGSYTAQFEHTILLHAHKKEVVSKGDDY
# 67 kD (p67) = biological target: T3, 67 kD (p67) (Bos taurus, UniProt Q3ZC89); test: competition of ovalicin photoaffinity labeling in BAEC extracts; assay type: binding, bovine; conditions: BAEC extract preincubated with excess cold competitor
# T3 construct: endogenous in cells; host or cells: BAEC (bovine aortic endothelial cells) extract
# T3 sequence (Q3ZC89 whole entry): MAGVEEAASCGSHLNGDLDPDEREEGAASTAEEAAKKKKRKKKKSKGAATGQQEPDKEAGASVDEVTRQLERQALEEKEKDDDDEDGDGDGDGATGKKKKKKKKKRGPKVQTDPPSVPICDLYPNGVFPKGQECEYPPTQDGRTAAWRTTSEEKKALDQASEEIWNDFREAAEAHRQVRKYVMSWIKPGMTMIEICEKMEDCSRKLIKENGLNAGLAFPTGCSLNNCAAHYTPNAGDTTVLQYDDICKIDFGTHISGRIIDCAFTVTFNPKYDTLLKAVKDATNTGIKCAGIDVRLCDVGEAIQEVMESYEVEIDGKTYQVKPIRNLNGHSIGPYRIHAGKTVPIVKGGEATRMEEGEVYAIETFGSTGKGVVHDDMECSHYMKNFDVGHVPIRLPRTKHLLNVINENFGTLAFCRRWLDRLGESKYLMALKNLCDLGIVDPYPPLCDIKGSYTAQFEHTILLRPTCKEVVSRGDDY
# Experimental: Photoaffinity labeling was performed as follows. […] Reaction mixtures were incubated on ice in the dark for 1 hr and then irradiated at 254 nm (0.2 J/cm^2). Reactions were quenched by adding 1.5 μl β-mercaptoethanol followed by 7.5 μl 5×SDS sample buffer and heated in a boiling water bath for 3 min. Samples were analyzed by 10% SDS/PAGE, followed by autoradiography.
# recombinant human MetAP2 [7] = biological target: T1, recombinant human MetAP2; test: covalent binding to MetAP2 (biotin conjugates, denaturing SDS-PAGE, streptavidin-HRP); conditions: drug-protein complex maintained under denaturing conditions
# Experimental: The protein samples were boiled in a sample buffer containing SDS and β-mercaptoethanol, subjected to SDS-PAGE, and transferred to nitrocellulose.
# 100 ng of recombinant human MetAP2 was incubated in 40 μl binding buffer (20 mM Tris·HCl, pH 7.1, 100 mM KCl, 0.2% Triton X-100) in the presence or absence of competitors for 1 hr followed by incubation with the biotin conjugates (1 μM) at 4° C. for 2 hr. 40 μl of 2×SDS sample buffer containing β-mercaptoethanol was added and the samples were boiled for 10 min. Following SDS-PAGE, the samples were transferred to nitrocellulose at 50V for 1 hr at 4° C. and blocked overnight in blocking solution (5% BSA, 2% Nonfat milk, 0.02% NaN3 in PBS). The membrane was incubated with rabbit anti-human MetAP2 antibodies (1:500) for 1 hr at room temperature, followed by incubation with sheep anti-rabbit IgG-HRP or incubated with streptavidin-HRP (1:1000) for 1 hr and visualized with the chemilluminescent ECL kit (Amersham, Arlington Heights, Ill.), as per manufacturer's instructions.
# p67 (MetAP2) = p67 (MetAP2) (Mus musculus, UniProt O08663)
# Chain of p67 (MetAP2) (O08663 whole entry): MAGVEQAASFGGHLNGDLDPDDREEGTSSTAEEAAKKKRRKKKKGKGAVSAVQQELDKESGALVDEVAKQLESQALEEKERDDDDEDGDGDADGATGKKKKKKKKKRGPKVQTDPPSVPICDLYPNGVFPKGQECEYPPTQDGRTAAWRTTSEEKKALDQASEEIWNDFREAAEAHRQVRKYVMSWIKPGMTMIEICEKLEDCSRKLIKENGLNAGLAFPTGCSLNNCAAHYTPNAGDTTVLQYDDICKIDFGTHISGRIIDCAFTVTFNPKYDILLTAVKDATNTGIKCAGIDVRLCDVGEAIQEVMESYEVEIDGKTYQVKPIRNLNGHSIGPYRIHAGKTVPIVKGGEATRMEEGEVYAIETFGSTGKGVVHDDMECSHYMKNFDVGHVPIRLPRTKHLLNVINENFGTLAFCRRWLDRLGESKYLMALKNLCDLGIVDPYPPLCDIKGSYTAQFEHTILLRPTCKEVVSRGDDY
# [8] = BAEC proliferation, average of at least three experiments, read-out: Proliferation IC50
# [9] = MetAP2 IC50 (nM), MetAP2 enzymatic activity, average of at least three experiments
# [10] = MetAP2 enzymatic activity, average of at least three experiments, read-out: MetAP2 IC50
# [11] = BAEC, read-out: Proliferation IC50 (nM)
smiles,measurement,setting,value
CO[C@@H]1[C@H](OC(=O)NCCNC(=O)CCc2ccc(O)cc2)CC[C@]2(CO2)[C@@]1(O)C1(C)O[C@@H]1CC=C(C)C (some centres unmarked) [photoaffinity label mimic],activity in the BAEC proliferation assay,[1],"retained significant, albeit decreased, activity"
COC1C(OC(=O)NCCCCCCCCNC(=O)CCCCC2SCC3NC(=O)NC32)CCC2(CO2)C1C1(C)OC1CC=C(C)C (centres unmarked) [biotin-fumagillin],activity in the BAEC proliferation assay,[1],retain significant activity
CO[C@@H]1[C@H](OC(=O)NC(=O)CCl)CC[C@]2(CO2)[C@H]1[C@@]1(C)O[C@@H]1CC=C(C)C [AGM-1470],IC50,[1]; [8],0.037 ± 0.0024 nM
same,IC50,"recombinant human MetAP2 [2]; IC50, methionine aminopeptidase activity of MetAP2, estimated, 1 nM of recombinant human MetAP2 used in the assay",~1 nM
same,IC50,recombinant human MetAP2 [2]; [9],1 ± 0.3 nM
same,MetAP2 bound by drug: inhibiting phosphorylation of eIF-2α by HRI,recombinant human MetAP2 [3],as effective as unbound MetAP2
same,growth of wild type yeast,[4],resistant
same,growth of the map1 mutant,[5],completely inhibited
same,growth of map2 mutant yeast,[6],resistant
same,inhibition of MetAP activity of the type 1 enzyme,recombinant yeast MetAP1,No inhibition
same,inhibition of the yeast MetAP2 enzyme,recombinant yeast MetAP2,completely inhibited
same,effect on p67 labeling by ovalicin photoaffinity probe,67 kD (p67),abrogated p67 labeling
same,mode of binding to MetAP2,recombinant human MetAP2 [7],bound to MetAP2 covalently
same,competition of band reacting with anti-human MetAP2 antibodies,p67 (MetAP2); Western blot of protein retained by biotin-fumagillin and biotin-ovalicin conjugates,elimination of the cross-reacting band
same,p67 retention by biotin-ovalicin conjugate on immobilized streptavidin,"p67 (MetAP2); mouse embryo extract, 50 μM competitor",sensitive
same,competition of p67 binding by biotin-fumagillin,"p67 (MetAP2); mouse embryo extract, 50 μM competitor, silver stain",competed
CO[C@@H]1C(=O)CC[C@]2(CO2)[C@@]1(O)[C@@]1(C)O[C@@H]1CC=C(C)C [Ovalicin],growth of wild type yeast,[4],resistant
same,growth of the map1 mutant,[5],completely inhibited
same,inhibition of MetAP activity of the type 1 enzyme,recombinant yeast MetAP1,No inhibition
same,inhibition of the yeast MetAP2 enzyme,recombinant yeast MetAP2,completely inhibited
"COC1C(OC(=O)NC(=O)CCl)CCC(O)(CSC)C1(O)C1(C)OC1CC=C(C)C [FOS-67, (1R,2S,3R,4R)-1-Methylthiomethylene-2-[(1′S,2′S)-1′,2′-epoxy-1′,5′-dimethyl-4′-hexenyl]-3-methoxy-4-O-(N-chloroacetyl)carbamoyl-cyclohexane-1,2,4-triol]",IC50,[1]; [8],40 ± 4 nM
same,IC50,recombinant human MetAP2 [2]; [10],400 ± 200 nM
"CO[C@@H]1C(=O)CC[C@]2(CO2)[C@H]1[C@@]1(C)O[C@@H]1CC=C(C)C [FOS-72, (3R,4S,5S)-4-[(1′R,2′S)-1′,2′-Epoxy-1′,5′-dimethyl-4′-hexenyl]-5-methoxy-1-oxaspiror[2.5]octan-6-one]",IC50,[1]; [11],0.013 ± 0.0015 nM
same,IC50,recombinant human MetAP2 [2]; [10],6 ± 2 nM
"CO[C@@H]1[C@H](OC(=O)CCCCl)CC[C@]2(CO2)[C@@]1(O)[C@@]1(C)O[C@@H]1CC=C(C)C [FOS-69, (3S,4R,5R,6R)-4-[(1′S,2′S)-1′,2′-Epoxy-1′5′-dimethyl-4′-hexenyl]-5-methoxy-6-O(4″chlorobutyryl)-1-oxaspiror[2.5]octane-4,6-diol]",IC50,[1]; [8],0.31 ± 0.066 nM
same,IC50,recombinant human MetAP2 [2]; [9],0.1 ± 0.03 nM
"CO[C@@H]1[C@H](OC(=O)NC(=O)CCl)CC[C@]2(CO2)[C@@]1(O)[C@@]1(C)O[C@@H]1CC=C(C)C [FOS-68, (3S,4R,5R,6R)-4-[(1′S,2′S)-1′,2′-Epoxy-1′,5′-dimethyl-4′-hexenyl]-5-methoxy-6-O(N-chloro-acetyl)carbamoyl-1-oxaspiror[2.5]octane-4,6-diol]",IC50,[1]; [8],0.46 ± 0.26 nM
same,IC50,recombinant human MetAP2 [2]; [10],2 ± 0.8 nM
"CO[C@@H]1[C@H](O)CC[C@]2(CO2)[C@@]1(O)[C@@]1(C)O[C@@H]1CC=C(C)C [FOS-34, (3S,4R,5R,6R)-4-[(1′S,2′S)-1′,2′-Epoxy-1′,5′-dimethyl-4′-hexenyl]-5-methoxy-1-oxaspiror[2.5]octane-4,6-diol]",IC50,[1]; [11],2.2 ± 1.4 nM
same,IC50,recombinant human MetAP2 [2]; [9],4 ± 1 nM
"COC1C(O)CCC(O)(CSC)C1(O)C1(C)OC1CC=C(C)C [FOS-201, (1R,2S,3R,4R)-1-Methylthiomethylene-2-[(1′S,2′S)-1′,2′-epoxy-1′,5′-dimethyl-4′hexenyl]-3-methoxycyclohexane-1,2,4-triol]",IC50,[1]; [8],56 ± 34 nM
same,IC50,recombinant human MetAP2 [2]; [10],45 ± 12 nM
